Laboratory results taken from ChEMBL document CHEMBL3352146, “Cytotoxic aaptamine derivatives from the South China Sea sponge Aaptos aaptos” (J Nat Prod, 2014).
pIC50: −log10 of the molar value.

Key:
[1] = Cytotoxicity against human HL60 cells after 48 hrs by trypan blue exclusion method; format: functional, cell-based; details: HL-60, 48 h
K562 = assay: Cytotoxicity against human K562 cells after 48 hrs by trypan blue exclusion method; format: functional, cell-based; details: K562, 48 h
KB = assay: Cytotoxicity against human KB cells after 72 hrs by methylene blue assay
MCF7 = assay: Cytotoxicity against human MCF7 cells after 72 hrs by methylene blue assay; details: MCF7, 72 h
HepG2 = assay: Cytotoxicity against human HepG2 cells after 72 hrs by methylene blue assay; details: HepG2, 72 h
HT-29 = assay: Cytotoxicity against human HT-29 cells after 72 hrs by methylene blue assay; details: HT-29, 72 h

Compound	IC50 [1] [µg/mL]	IC50 (K562) [µg/mL]	IC50 (KB) [µg/mL]	IC50 (MCF7) [µg/mL]	IC50 (HepG2) [µg/mL]	IC50 (HT-29) [µg/mL]	pIC50 [1]	pIC50 (K562)	pIC50 (KB)	pIC50 (MCF7)	pIC50 (HepG2)	pIC50 (HT-29)
COc1cc2ccn3c(CC(C)C)nc4c(=O)[nH]c(c1OC)c2c43	> 10	> 10	> 10	> 10	> 10	> 10	–	–	–	–	–	–
CCOC1=Nc2c(N)c(OC)cc3ccnc(c23)C1=O	–	–	–	–	–	–	6.96	6.66	6.18	5.92	6.22	5.18
COC1=Cc2ccnc3c(NCC(C)C)cnc(c23)C1=O	–	–	–	–	–	–	6.55	6.34	5.96	5.64	6.00	5.07
COC1=Cc2ccnc3c(NCCC(C)C)cnc(c23)C1=O	–	–	–	–	–	–	7.52	7.05	6.96	6.36	6.77	5.74
COC1=Cc2ccnc3c(NCCc4ccccc4)cnc(c23)C1=O	–	–	–	–	–	–	7.52	7.05	6.92	6.40	6.70	5.66
COC1=Cc2ccnc3c4c(nc(c23)C1=O)CCCN4	> 10	> 10	> 10	> 10	> 10	> 10	–	–	–	–	–	–
CCC(C)c1nc2c(=O)[nH]c3c(OC)c(OC)cc4ccn1c2c43 (configuration not stated)	> 10	> 10	> 10	> 10	> 10	> 10	–	–	–	–	–	–
COc1cc2ccn3c(C(C)C)nc4c(=O)[nH]c(c1OC)c2c43	> 10	> 10	> 10	> 10	> 10	> 10	–	–	–	–	–	–
CCOc1nc2c(=O)[nH]c3c(OC)c(OC)cc4ccn1c2c43	> 10	> 10	> 10	> 10	> 10	> 10	–	–	–	–	–	–
CCC(C)CNc1cnc2c3c(ccnc13)C=C(OC)C2=O (configuration not stated)	> 10	> 10	> 10	> 10	> 10	> 10	–	–	–	–	–	–
CCOC(=O)CCCNc1cnc2c3c(ccnc13)C=C(OC)C2=O	> 10	> 10	> 10	> 10	> 10	> 10	–	–	–	–	–	–
CNc1cnc2c3c(ccnc13)C=C(OC)C2=O	> 10	> 10	> 10	> 10	> 10	> 10	–	–	–	–	–	–
CC(=O)O[C@H]1C(=O)[C@@]2(C)[C@H]([C@H](OC(=O)c3ccccc3)[C@]3(O)C[C@H](OC(=O)[C@H](O)[C@@H](NC(=O)c4ccccc4)c4ccccc4)C(C)=C1C3(C)C)[C@]1(OC(C)=O)CO[C@@H]1C[C@@H]2O [PACLITAXEL]	–	–	–	–	–	–	8.82	8.62	–	8.49	8.57	8.46
